These compounds were tested against T1, MAGL (Homo sapiens, UniProt Q99685) (assay: 2-AG assay (MAGL inhibitory activity, hydrolysis of 2-arachidonoylglycerol to arachidonic acid followed by mass spectrometry)). Settings: 8 μM 2-arachidonoylglycerol, 15 min pre-incubation, 30 min incubation at RT, RapidFire MS readout.
T1 sequence (Q99685 1-303): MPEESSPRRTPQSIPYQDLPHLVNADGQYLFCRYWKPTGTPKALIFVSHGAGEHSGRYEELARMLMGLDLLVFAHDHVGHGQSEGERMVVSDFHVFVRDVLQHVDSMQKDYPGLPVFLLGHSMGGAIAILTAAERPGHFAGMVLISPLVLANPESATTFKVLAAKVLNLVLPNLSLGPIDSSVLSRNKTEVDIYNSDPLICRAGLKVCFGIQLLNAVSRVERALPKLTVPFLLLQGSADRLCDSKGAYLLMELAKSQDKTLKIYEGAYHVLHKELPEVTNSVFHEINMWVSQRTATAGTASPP
Format: biochemical
Procedure, shortened: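 Arachidonic acid released from 8 μM 2-arachidonoylglycerol was quantified by online SPE triple-quadrupole MS (negative ESI, 303.1→259.1), normalised to d8-arachidonic acid internal standard. Reaction ran 30 min at RT after 15 min RT compound pre-incubation with […] MAGL in TRIS/EDTA/Tween-20 buffer, 2.5% DMSO.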

**Q.** With CC(C)(C)CS(=O)(=O)NC1CC2(C1)CN(C(=O)N1CC3(CC(n4cnc(C5CC5)n4)C3)C1)C2 [Example 215, N-[2-[6-(3-cyclopropyl-1,2,4-triazol-1-yl)-2-azaspiro[3.3]heptane-2-carbonyl]-2-azaspiro[3.3]heptan-6-yl]-2,2-dimethyl-propane-1-sulfonamide] as the compound, how does the IC50 read?
**A.** 1.7 nM

**Q.** How did the IC50 turn out when O=C(N1CC(c2ccc(N3CC[C@@](O)(C(F)(F)F)C3)nc2)C1)N1CC2(CC(n3cnc(C4CC4)n3)C2)C1 [Example 216] was run?
**A.** 2 nM

**Q.** With O=C(N1CC2(CC(Cc3ccc(F)cn3)C2)C1)N1CC2(CC(n3cnc(C4CC4)n3)C2)C1 [Example 217, [6-(3-cyclopropyl-1,2,4-triazol-1-yl)-2-azaspiro[3.3]heptan-2-yl]-[6-[(5-fluoro-2-pyridyl)methyl]-2-azaspiro[3.3]heptan-2-yl]methanone] as the compound, how does the IC50 read?
**A.** 2 nM

**Q.** Which IC50 does the source give for Cc1cn(C2CC3(C2)CN(C(=O)N2CC4(CC(Cc5ccc(F)cc5F)C4)C2)C3)cn1 [Example 218, [6-[(2,4-difluorophenyl)methyl]-2-azaspiro[3.3]heptan-2-yl]-[6-(4-methylimidazol-1-yl)-2-azaspiro[3.3]heptan-2-yl]methanone] here?
**A.** 2.1 nM

**Q.** With COc1c(OC2CN(C(=O)N3CC4(CC(n5cnc(C6CC6)n5)C4)C3)C2)cccc1C(F)(F)F [Example 219, (6-(3-cyclopropyl-1H-1,2,4-triazol-1-yl)-2-azaspiro[3.3]heptan-2-yl)(3-(2-methoxy-3-(trifluoromethyl)phenoxy)azetidin-1-yl)methanone] as the compound, how does the IC50 read?
**A.** 2.2 nM

**Q.** How did the IC50 turn out when O=C(N1CC2(CC(n3cnc(C4CC4)n3)C2)C1)N1CC2(CN(Cc3cc(F)cc(F)c3)C2)C1 [Example 221, [6-(3-cyclopropyl-1,2,4-triazol-1-yl)-2-azaspiro[3.3]heptan-2-yl]-[6-[(3,5-difluorophenyl)methyl]-2,6-diazaspiro[3.3]heptan-2-yl]methanone] was run?
**A.** 2.5 nM

**Q.** For O=C(N1CC(Oc2cccc(C(F)(F)F)c2Cl)C1)N1CC2(CC(n3cnc(C4CC4)n3)C2)C1 [Example 222, (3-(2-chloro-3-(trifluoromethyl)phenoxy)azetidin-1-yl)(6-(3-cyclopropyl-1H-1,2,4-triazol-1-yl)-2-azaspiro[3.3]heptan-2-yl)methanone], which IC50 is on record?
**A.** 2.6 nM

**Q.** O=C(N1CC2(CC(n3cnc(C4CC4)n3)C2)C1)N1CC2(C1)CN(S(=O)(=O)c1ccccc1C(F)(F)F)C2 [Example 223, [6-(3-cyclopropyl-1,2,4-triazol-1-yl)-2-azaspiro[3.3]heptan-2-yl]-[2-[2-(trifluoromethyl)phenyl]sulfonyl-2,6-diazaspiro[3.3]heptan-6-yl]methanone] was tested. Which IC50 did it give?
**A.** 3 nM

**Q.** Which IC50 does the source give for O=C(N1CC2(CC(n3cnc(C4CC4)n3)C2)C1)N1CC2(C1)CN(S(=O)(=O)C1CCCCC1)C2 [Example 224, (2-cyclohexylsulfonyl-2,6-diazaspiro[3.3]heptan-6-yl)-[6-(3-cyclopropyl-1,2,4-triazol-1-yl)-2-azaspiro[3.3]heptan-2-yl]methanone] here?
**A.** 3 nM

**Q.** O=C(N1CC2(CC(n3cnc(C4CC4)n3)C2)C1)N1CC2(C1)CN(S(=O)(=O)c1ccc(C(F)(F)F)cc1)C2 [Example 225, [6-(3-cyclopropyl-1,2,4-triazol-1-yl)-2-azaspiro[3.3]heptan-2-yl]-[2-[4-(trifluoromethyl)phenyl]sulfonyl-2,6-diazaspiro[3.3]heptan-6-yl]methanone] was tested. Which IC50 did it give?
**A.** 3.3 nM

**Q.** With O=C(N1CC2(CC(n3cnc(C4CC4)n3)C2)C1)N1CC2(C1)CN(S(=O)(=O)c1cc(F)cc(C(F)(F)F)c1)C2 [Example 226, [6-(3-cyclopropyl-1,2,4-triazol-1-yl)-2-azaspiro[3.3]heptan-2-yl]-[2-[3-fluoro-5-(trifluoromethyl)phenyl]sulfonyl-2,6-diazaspiro[3.3]heptan-6-yl]methanone] as the compound, how does the IC50 read?
**A.** 3.6 nM

**Q.** For O=C(N1CCC([C@@H](c2ccc(F)cc2)c2nc(C3CC3)no2)CC1)N1CC2(CC(n3cnc(C4CC4)n3)C2)C1 [Example 227, [4-[(S)-(3-cyclopropyl-1,2,4-oxadiazol-5-yl)-(4-fluorophenyl)methyl]-1-piperidyl]-[6-(3-cyclopropyl-1,2,4-triazol-1-yl)-2-azaspiro[3.3]heptan-2-yl]methanone], which IC50 is on record?
**A.** 3.8 nM

**Q.** O=C(N1CC2(CC(n3cnc(C4CC4)n3)C2)C1)N1CC2(C1)CN(S(=O)(=O)c1ccc(F)cc1Cl)C2 [Example 228, [2-(2-chloro-4-fluoro-phenyl)sulfonyl-2,6-diazaspiro[3.3]heptan-6-yl]-[6-(3-cyclopropyl-1,2,4-triazol-1-yl)-2-azaspiro[3.3]heptan-2-yl]methanone] was tested. Which IC50 did it give?
**A.** 4.2 nM

**Q.** With COC(=O)c1ccccc1CN1CC2(C1)CN(C(=O)N1CC3(CC(n4cnc(C5CC5)n4)C3)C1)C2 [Example 229, methyl 2-[[2-[6-(3-cyclopropyl-1,2,4-triazol-1-yl)-2-azaspiro[3.3]heptane-2-carbonyl]-2,6-diazaspiro[3.3]heptan-6-yl]methyl]benzoate] as the compound, how does the IC50 read?
**A.** 4.5 nM

**Q.** For O=C(N1CC2(CC(n3cnc(C4CC4)n3)C2)C1)N1CC2(C1)CN(S(=O)(=O)c1ccc(OC(F)(F)F)cc1)C2 [Example 230, [6-(3-cyclopropyl-1,2,4-triazol-1-yl)-2-azaspiro[3.3]heptan-2-yl]-[2-[4-(trifluoromethoxy)phenyl]sulfonyl-2,6-diazaspiro[3.3]heptan-6-yl]methanone], which IC50 is on record?
**A.** 4.6 nM

**Q.** O=C(N1CC2(CC(n3cnc(C4CC4)n3)C2)C1)N1CC2(C1)CN(S(=O)(=O)c1ccc(F)cc1F)C2 [Example 231, [6-(3-cyclopropyl-1,2,4-triazol-1-yl)-2-azaspiro[3.3]heptan-2-yl]-[2-(2,4-difluorophenyl)sulfonyl-2,6-diazaspiro[3.3]heptan-6-yl]methanone] was tested. Which IC50 did it give?
**A.** 4.6 nM

**Q.** With O=C(N1CC2(CC(n3cnc(C4CC4)n3)C2)C1)N1CC2(CN(Cc3ccc(C(F)(F)F)cn3)C2)C1 [Example 232] as the compound, how does the IC50 read?
**A.** 4.6 nM

**Q.** For O=C(N1CC2(CC(n3cnc(C4CC4)n3)C2)C1)N1CC2(C1)CN(S(=O)(=O)c1cccc(OC(F)(F)F)c1)C2 [Example 233, [6-(3-cyclopropyl-1,2,4-triazol-1-yl)-2-azaspiro[3.3]heptan-2-yl]-[2-[3-(trifluoromethoxy)phenyl]sulfonyl-2,6-diazaspiro[3.3]heptan-6-yl]methanone], which IC50 is on record?
**A.** 5.3 nM

**Q.** For O=C(N1CC2(CC(n3cnc(C4CC4)n3)C2)C1)N1CC2(CN(Cc3ccc(F)cc3F)C2)C1 [Example 234, [6-(3-cyclopropyl-1,2,4-triazol-1-yl)-2-azaspiro[3.3]heptan-2-yl]-[6-[(2,4-difluorophenyl)methyl]-2,6-diazaspiro[3.3]heptan-2-yl]methanone], which IC50 is on record?
**A.** 5.4 nM

**Q.** Which IC50 does the source give for O=C(N1CC(Oc2cncc(C3CC3)c2Cl)C1)N1CC2(CC(n3cnc(C4CC4)n3)C2)C1 [Example 235, [3-[(4-chloro-5-cyclopropyl-3-pyridyl)oxy]azetidin-1-yl]-[6-(3-cyclopropyl-1,2,4-triazol-1-yl)-2-azaspiro[3.3]heptan-2-yl]methanone] here?
**A.** 6 nM

**Q.** With O=C(N1CC2(CC(n3cnc(C4CC4)n3)C2)C1)N1CC2(C1)CN(S(=O)(=O)c1ccc(F)c(C(F)(F)F)c1)C2 [Example 236, [6-(3-cyclopropyl-1,2,4-triazol-1-yl)-2-azaspiro[3.3]heptan-2-yl]-[2-[4-fluoro-3-(trifluoromethyl)phenyl]sulfonyl-2,6-diazaspiro[3.3]heptan-6-yl]methanone] as the compound, how does the IC50 read?
**A.** 6.2 nM

**Q.** How did the IC50 turn out when O=C(N1CC2(CC(n3cnc(C4CC4)n3)C2)C1)N1CC2(C1)CN(S(=O)(=O)N1CCCCC1)C2 [Example 237, [6-(3-cyclopropyl-1,2,4-triazol-1-yl)-2-azaspiro[3.3]heptan-2-yl]-[2-(1-piperidylsulfonyl)-2,6-diazaspiro[3.3]heptan-6-yl]methanone] was run?
**A.** 6.4 nM

**Q.** Which IC50 does the source give for CS(=O)(=O)c1cc(F)ccc1OC1CCC2(CC1)CN(C(=O)N1CC3(CC(n4cnc(C5CC5)n4)C3)C1)C2 [Example 238, [6-(3-cyclopropyl-1,2,4-triazol-1-yl)-2-azaspiro[3.3]heptan-2-yl]-[7-(4-fluoro-2-mesyl-phenoxy)-2-azaspiro[3.5]nonan-2-yl]methanone] here?
**A.** 6.5 nM

**Q.** Which IC50 does the source give for CC(C)(C)CS(=O)(=O)N1CC2(CN(C(=O)N3CC4(CC(n5cnc(C6CC6)n5)C4)C3)C2)C1 [Example 239] here?
**A.** 6.6 nM

**Q.** Which IC50 does the source give for N#Cc1ccccc1S(=O)(=O)N1CC2(CN(C(=O)N3CC4(CC(n5cnc(C6CC6)n5)C4)C3)C2)C1 [Example 240] here?
**A.** 6.8 nM

**Q.** For Cc1ccc(OC2CN(C(=O)N3CC4(CC(n5cnc(C6CC6)n5)C4)C3)C2)c(F)c1 [Example 241, (6-(3-cyclopropyl-1H-1,2,4-triazol-1-yl)-2-azaspiro[3.3]heptan-2-yl)(3-(2-fluoro-4-methylphenoxy)azetidin-1-yl)methanone], which IC50 is on record?
**A.** 8.7 nM

**Q.** Which IC50 does the source give for O=C(N1CC2(CC(n3cnc(C4CC4)n3)C2)C1)N1CC2(C1)CN(S(=O)(=O)c1c(F)cc(F)cc1F)C2 [Example 242, [6-(3-cyclopropyl-1,2,4-triazol-1-yl)-2-azaspiro[3.3]heptan-2-yl]-[2-(2,4,6-trifluorophenyl)sulfonyl-2,6-diazaspiro[3.3]heptan-6-yl]methanone] here?
**A.** 8.8 nM

**Q.** With O=C(N1CC2(CC(n3cnc(C4CC4)n3)C2)C1)N1CC2(C1)CN(S(=O)(=O)c1cccnc1Cl)C2 [Example 243, [2-[(2-chloro-3-pyridyl)sulfonyl]-2,6-diazaspiro[3.3]heptan-6-yl]-[6-(3-cyclopropyl-1,2,4-triazol-1-yl)-2-azaspiro[3.3]heptan-2-yl]methanone] as the compound, how does the IC50 read?
**A.** 8.8 nM

From patent US20240199587A1, “HETEROCYCLIC COMPOUNDS” (Hoffmann-La Roche Inc., priority 2021, published 2024)
